Experimental data from US5283243A, “Piperidinoalkylbenzoxazine and piperidinoalkylbenzothiazine compounds, and medicaments containing them” (Kali-Chemie Pharma GmbH, priority 1990, dated 1994).

Assays:
histamine-(H1)-receptor = biological target: T1, histamine-(H1)-receptor (Cavia porcellus, UniProt P31389); assay: Anti-histamine-(H1) effect, inhibition of histamine-induced contraction of isolated guinea pig ileum in vitro; type: cell-based, Dunkin Hartley guinea pigs; settings: histamine 5 × 10^-6 mole/l, test substance 10^-6 mole/l
T1 construct: Segments of the ileum 1.5 cm long from Dunkin Hartley guinea pigs; from tissue; host or cells: isolated ileum segments of Dunkin Hartley guinea pigs
T1 sequence (P31389 whole entry): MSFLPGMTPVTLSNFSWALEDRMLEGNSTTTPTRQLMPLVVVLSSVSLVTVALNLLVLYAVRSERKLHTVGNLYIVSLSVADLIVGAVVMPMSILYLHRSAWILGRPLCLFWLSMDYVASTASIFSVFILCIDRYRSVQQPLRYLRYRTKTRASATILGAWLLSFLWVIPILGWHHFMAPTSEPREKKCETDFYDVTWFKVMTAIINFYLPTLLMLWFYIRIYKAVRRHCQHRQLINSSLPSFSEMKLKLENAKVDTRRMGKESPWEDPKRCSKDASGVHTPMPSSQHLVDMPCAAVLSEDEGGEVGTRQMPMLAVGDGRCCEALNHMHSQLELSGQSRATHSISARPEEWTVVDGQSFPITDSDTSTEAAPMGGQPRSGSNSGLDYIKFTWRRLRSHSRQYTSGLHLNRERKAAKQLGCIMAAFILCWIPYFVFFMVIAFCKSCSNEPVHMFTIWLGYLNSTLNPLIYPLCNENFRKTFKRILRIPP
Protocol: 3. Investigation of Anti-Histamine-(H1) Effect Based on Histamine-(H1)-Receptor Antagonism In Vitro
To investigate the histamine-(H1)-receptor antagonism of the test substances, the inhibiting effect of the substances on histamine-induced contractions of the smooth muscle was determined in vitro on the isolated organ. Isolated strips of organ from the ileum are suitable for this purpose. In an organ bath of physiological saline solution the smooth muscle strips react to the addition of histamine by contracting. […] The extent of regression of the contraction is an indication of the anti-histamine-(H1) activity of the compounds. The investigation was carried out analogously to the method originally described by Magnus (Pfluegers Arch. 102, 123 (1904)). Procedure for determining the smooth muscle contraction inhibiting effect on isolated guinea pig ileum induced by a 5×10^-6 molar histamine concentration.
Segments of the ileum 1.5 cm long from Dunkin Hartley guinea pigs having a body weight of 300 500 g were used for the test. Each strip was placed in an organ bath of 10 ml of physiological saline solution according to Krebs-Henseleit and attached to a conventional apparatus for isotonic measurement of changes in length of the ileum strips (automated Celaster measuring apparatus), so that the tissue was under 1 g of tension. The bath was kept at a pH of 7.4 and gassed with a mixture of 5% CO2 and 95% 02. After an equilibration phase, an isotonic contraction of the tissue was induced by adding histamine in a final concentration of 5×10^-6 mole/liter and washing it out again after a contact time of 30 seconds. Only tissues samples from which three reproducible contractions were obtained at 10 minute intervals were used in the subsequent test. The test substances were then added in a final concentration of 10^-6 mole/liter, and after 30 seconds contact time histamine was again added up to a concentration of 5×10^-6 mole/liter. The resulting contractions were measured over 30 seconds. The tissue was then washed several times over a period of 10 minutes. Histamine was then added again to stimulate a contraction. The resulting contractions were again measured over 30 seconds. The difference between the amplitude of the contraction obtained by histamine addition alone and the amplitude of the contraction obtained in the presence of the test substance was determined and expressed in terms of % inhibition.
The inhibiting effects on the contractions induced by histamine 30 seconds after administration of the test substance and on the contractions induced by the addition of histamine 10 minutes later are listed in the table.

mice = assay: Determination of minimum toxic dose; type: in vivo; settings: mouse, in vivo, 300 mg/kg, 1440 min
Protocol: 2. Determination of Minimum Toxic Dose
Maximum doses of 300 mg/kg of the test substance were administered orally to male mice weighing 20-25 g. The animals were observed carefully for 3 hours for toxicity symptoms. In addition, all symptoms and deaths were recorded over a period of 24 hours after administration. Associated symptoms were also observed and recorded. If death or severe toxic symptoms were observed, additional mice were administered increasingly lower doses. The lowest dose which produced death or severe toxic symptoms is given in the following Table B as the minimum toxic dose.

[1] = test system: 5-lipoxygenase (LTC4 release); assay: 5-Lipoxygenase inhibition: LTC4 release from zymosan-stimulated mouse peritoneal macrophage cells; type: cell-based; settings: Peritoneal macrophage cell; zymosan-stimulated mouse peritoneal macrophage cells, 10^-5 mole/l; read-out: In vitro % inhibition upon release of LTC4
From the text: 5. In vitro Determination of Cyclooxygenase Inhibition and 5-Lipoxygenase Inhibition
After a cell is activated, arachidonic acid contained in cell membranes is metabolized in two ways. Leucotrienes, inter alia leucotriene C4, are formed due to the action of the enzyme 5-lipoxyqenase (=5-LO), and prostanoids are formed due to the action of the enzyme cyclooxygenase (=CO). In in vitro systems these metabolites are secreted from the cell.
To evaluate the cyclooxygenase-inhibiting and 5-lipoxygenase-inhibiting properties of the test substances, their inhibitory activity on the biosynthesis of the arachidonic acid derivatives leucotriene C4 (=LTC4) and 6-keto-prostaglandin F1α (=6-keto-PGF1 α) was determined in vitro on mouse peritoneal macrophage cells. For this purpose the LTC4 and 6-keto-PGF1 α contents of a mouse peritoneal macrophage cell culture medium were determined by zymosan stimulation as described by Scott et al. (J. Exp. Med. 152 (1980), 324-335) and by Fradin et al., (Prostaglandins, 33 (1987), 579-589).
A cell suspension containing peritoneal cells from male mice 8-10 weeks old was obtained in a known manner. A solution marketed under the designation RPMI 1640 (Manufactured by Gibco) was used as the cell culture medium, to which heparin (10 international units/ml) and antibiotics were added according to the procedure of Bonney et al. (Biochem. J. 176 (1978) 422-433). The cell suspension was adjusted to a cell concentration of 10^6 cells per ml and distributed uniformly on titer dishes containing 24 1-ml titer cells (wells). These were kept for two hours in a humidified incubator filled with air enriched with 7% CO2. Cells not adhering to the titer well walls were then removed by washing. The remaining macrophage cells adhering to the walls were incubated for about 12 hours in a suspension medium to which 0.1% of bovine serum albumin (BSA=Bovine Serum Albumin) was added. The suspension medium was then replaced by a Hanks salt solution (=Hanks Balanced Salt Solution=HBSS) with 10 mmoles of Hepes (=hydroxyethylpiperazinoethanesulfonic acid) to which a 0.1% strength solution of the test substances in aqueous, 1% strength dimethylformamide or only the solvent had been added. After 15 minutes the arachidonic acid metabolism was stimulated by adding […] of zymosan (=glycoprotein mixture isolated from cell walls of beer yeast, Saccharomyces cerevisiae, Manufactured by Sigma Chemical Co., Munich) per titre cell. After 2 hours samples of the respective supernatant liquid in each cell were examined for their 6-keto-PGF1α and LTC4 contents by an enzyme immunoassay (=EIA). This EIA is carried out following the method of Pradelles et al. (Analytical Chem. 57 (1985), 1170-1173). The determination of LTC4 and the determination of 6-keto-PGF1α were each carried out on suitable dilutions of the samples (1:50 to 1:250 for the LTC4 determination and 1:250 to 1:1,250 for the 6-keto-PGF1α determination) in comparison with a comparative scale. To determine the inhibiting effect of a 10^-5 molar concentration of the compounds, the amounts of reference eicosanoid were determined, and the inhibiting effect was calculated therefrom in % inhibition compared to the measurements of the zymosan controls.

In the case of `O=C1Nc2ccccc2SC1CCCN1CCC(Nc2nc3ccccc3n2Cc2ccc(F)cc2)CC1` (stereo not shown) [Example 8], the “in vitro (H1)-receptor antagonism, % inhibition of histamine-induced ileum contractions after 30 seconds” value (histamine-(H1)-receptor; after 30 seconds) is reported as 5%, the “in vitro (H1)-receptor antagonism, % inhibition of histamine-induced ileum contractions after 10 minutes” value (histamine-(H1)-receptor; after 10 minutes) is reported as 44% and the Minimum toxic dose (mice) is reported as 300 mg/kg. The inhibition at 10 µM [1] was 40%.
